Like-named read-outs stand apart in the source and are kept apart here.
Columns and labels:
Type in all cases: in vivo
test mice [1] = assay: Radioprotective activity in mice against LD100 of γ-radiation (1000 RAD) (Table II); details: for toxicity (in words): at the levels used in this test; for protection against LD100 dose of irradiation (in words): dose level near the LD50 (50 mg/kg), all the mice survived
[2] = Acute toxicity in mice (Table I); details: mouse, in vivo; for survival: read-out: Survivors (%); for LD50: mice, ip
Protocol: (§1) Radioprotective Agents A, B, C, and D were tested for acute toxicity and radioprotective activity using test mice at various dosage levels against LD100 of γ-radiation. The agents were administered interperitoneally (ip).

test mice [3] = assay: Acute toxicity in mice (Table I); details: vehicle H2O
Protocol: as §1

[4] = 75 mg/kg ip, 30 min before 1000 RAD
[5] = 150 mg/kg ip, 30 min before 1000 RAD
[6] = 300 mg/kg ip, 30 min before 1000 RAD
[7] = 300 mg/kg po, 30 min before 1000 RAD
[8] = 600 mg/kg po, 30 min before 1000 RAD
[9] = 1200 mg/kg po, 30 min before 1000 RAD
[10] = 18.75 mg/kg ip, 30 min before 1000 RAD
[11] = 37.5 mg/kg ip, 30 min before 1000 RAD
[12] = 54.3 mg/kg ip, 30 min before 1000 RAD
[13] = 109 mg/kg ip, 30 min before 1000 RAD
[14] = 217 mg/kg ip, 30 min before 1000 RAD
[15] = 435 mg/kg ip, 30 min before 1000 RAD
[16] = 55.1 mg/kg ip, 0 min before 1000 RAD
[17] = 110.3 mg/kg ip, 0 min before 1000 RAD
[18] = 220.6 mg/kg ip, 0 min before 1000 RAD
[19] = 441 mg/kg ip, 0 min before 1000 RAD

NCCCN1CCSC1c1ccc([N+](=O)[O-])cc1 (stereo not drawn) [A]
Drug Related Lethality (test mice [1]; [4]): 0/10 | Survivors (%) (test mice [1]; [4]): 20% | Drug Related Lethality (test mice [1]; [5]): 0/10 | Survivors (%) (test mice [1]; [5]): 30% | Drug Related Lethality (test mice [1]; [6]): 5/10 | Survivors (%) (test mice [1]; [6]): 40% | Drug Related Lethality (test mice [1]; [7]): 0/10 | Survivors (%) (test mice [1]; [7]): 0% | Drug Related Lethality (test mice [1]; [8]): 0/10 | Survivors (%) (test mice [1]; [8]): 0% | Drug Related Lethality (test mice [1]; [9]): 7/10 | Survivors (%) (test mice [1]; [9]): 0% | toxicity (in words) (test mice [1]): toxic | survival ([2]; 75 mg/kg ip, vehicle H2O): 100% | survival ([2]; 150 mg/kg ip, vehicle H2O): 100% | survival ([2]; 300 mg/kg ip, vehicle H2O): 60% | survival ([2]; 600 mg/kg ip, vehicle H2O): 0% | Deaths (test mice [3]; 75 mg/kg ip): 0/5 | Deaths (test mice [3]; 150 mg/kg ip): 0/5 | Deaths (test mice [3]; 300 mg/kg ip): 2/5 | Deaths (test mice [3]; 600 mg/kg ip): 5/5

COc1ccc(C2SCCN2CCCN)cc1 (stereo not drawn) [B]
Drug Related Lethality (test mice [1]; [10]): 0/10 | Survivors (%) (test mice [1]; [10]): 0% | Drug Related Lethality (test mice [1]; [11]): 0/10 | Survivors (%) (test mice [1]; [11]): 0% | Drug Related Lethality (test mice [1]; [4]): 0/10 | Survivors (%) (test mice [1]; [4]): 20% | toxicity (in words) (test mice [1]): toxic | survival ([2]; 75 mg/kg ip, vehicle H2O): 100% | survival ([2]; 150 mg/kg ip, vehicle H2O): 20% | survival ([2]; 300 mg/kg ip, vehicle H2O): 0% | survival ([2]; 600 mg/kg ip, vehicle H2O): 0% | Deaths (test mice [3]; 75 mg/kg ip): 0/5 | Deaths (test mice [3]; 150 mg/kg ip): 4/5 | Deaths (test mice [3]; 300 mg/kg ip): 5/5 | Deaths (test mice [3]; 600 mg/kg ip): 5/5

COc1ccc(C2SCCN2CCCN)cc1OC (stereo not drawn) [C]
Drug Related Lethality (test mice [1]; [12]): 0/5 | Survivors (%) (test mice [1]; [12]): 100% | Drug Related Lethality (test mice [1]; [13]): 5/5 | Survivors (%) (test mice [1]; [13]): 0% | Drug Related Lethality (test mice [1]; [14]): 5/5 | Survivors (%) (test mice [1]; [14]): 0% | Drug Related Lethality (test mice [1]; [15]): 5/5 | Survivors (%) (test mice [1]; [15]): 0% | protection against LD100 dose of irradiation (in words) (test mice [1]): complete protection | mortality ([2]; 37.5 mg/kg ip, vehicle H2O, read-out: Deaths): 50% | survival ([2]; 37.5 mg/kg ip, vehicle H2O): 100% | survival ([2]; 75 mg/kg ip, vehicle H2O): 0% | survival ([2]; 150 mg/kg ip, vehicle H2O): 0% | survival ([2]; 300 mg/kg ip, vehicle H2O): 0% | LD50 [2]: 50 mg/kg | Deaths (test mice [3]; 75 mg/kg ip): 5/5 | Deaths (test mice [3]; 150 mg/kg ip): 5/5 | Deaths (test mice [3]; 300 mg/kg ip): 5/5

NCCCN1CCSC1c1ccc2c(c1)OCO2 (stereo not drawn) [D]
Drug Related Lethality (test mice [1]; [16]): 0/5 | Survivors (%) (test mice [1]; [16]): 100% | Drug Related Lethality (test mice [1]; [17]): 5/5 | Survivors (%) (test mice [1]; [17]): 0% | Drug Related Lethality (test mice [1]; [18]): 5/5 | Survivors (%) (test mice [1]; [18]): 0% | Drug Related Lethality (test mice [1]; [19]): 5/5 | Survivors (%) (test mice [1]; [19]): 0% | protection against LD100 dose of irradiation (in words) (test mice [1]): complete protection | survival ([2]; 37.5 mg/kg ip, vehicle H2O): 100% | survival ([2]; 75 mg/kg ip, vehicle H2O): 0% | survival ([2]; 150 mg/kg ip, vehicle H2O): 0% | survival ([2]; 300 mg/kg ip, vehicle H2O): 0% | LD50 [2]: 50 mg/kg | Deaths (test mice [3]; 37.5 mg/kg ip): 0/5 | Deaths (test mice [3]; 75 mg/kg ip): 5/5 | Deaths (test mice [3]; 150 mg/kg ip): 5/5 | Deaths (test mice [3]; 300 mg/kg ip): 5/5
